The NIST ThermoML archive (doi:10.1021/je800110r)
Numbers after ± are expanded uncertainties.

Settings: 323.15 K, Liquid, Vibrating tube method

CCCCCCCCCC [decane]
Settings	mass density [kg/m3]
19981 kPa	723.9 ± 2
20414 kPa	724.1 ± 2
20537 kPa	724.2 ± 2
20652 kPa	724.2 ± 2
20695 kPa	724.1 ± 2
20721 kPa	724.3 ± 2
20740 kPa	724.4 ± 2
20766 kPa	724.4 ± 2
20799 kPa	724.3 ± 2
20826 kPa	724.5 ± 2
20842 kPa	724.5 ± 2
20862 kPa	724.5 ± 2
20893 kPa	724.5 ± 2
20916 kPa	724.4 ± 2
20949 kPa	724.5 ± 2
20970 kPa	724.6 ± 2
20990 kPa	724.5 ± 2
21020 kPa	724.4 ± 2
21044 kPa	724.5 ± 2
21064 kPa	724.7 ± 2
21088 kPa	724.5 ± 2
21254 kPa	724.7 ± 2
21289 kPa	724.7 ± 2
21309 kPa	724.8 ± 2
21334 kPa	724.7 ± 2
21558 kPa	724.9 ± 2
21597 kPa	725 ± 2
21615 kPa	724.9 ± 2
21681 kPa	725 ± 2
21707 kPa	725.1 ± 2
21732 kPa	725.1 ± 2
21754 kPa	725.1 ± 2
21790 kPa	725.1 ± 2
21819 kPa	725.1 ± 2
21845 kPa	725.1 ± 2
21867 kPa	725.2 ± 2
21896 kPa	725.2 ± 2
21926 kPa	725.2 ± 2
21955 kPa	725.2 ± 2
21989 kPa	725.3 ± 2
22012 kPa	725.3 ± 2
22035 kPa	725.2 ± 2
22072 kPa	725.4 ± 2
22094 kPa	725.2 ± 2
22131 kPa	725.4 ± 2
22154 kPa	725.4 ± 2
22183 kPa	725.4 ± 2
22207 kPa	725.4 ± 2
22236 kPa	725.3 ± 2
22271 kPa	725.5 ± 2
22302 kPa	725.5 ± 2
22328 kPa	725.5 ± 2
22359 kPa	725.5 ± 2
22383 kPa	725.5 ± 2
22410 kPa	725.6 ± 2
22448 kPa	725.6 ± 2
22471 kPa	725.6 ± 2
22498 kPa	725.7 ± 2
22533 kPa	725.6 ± 2
22563 kPa	725.7 ± 2
22583 kPa	725.8 ± 2
22622 kPa	725.6 ± 2
22654 kPa	725.8 ± 2
22682 kPa	725.7 ± 2
23638 kPa	726.6 ± 2.1
23679 kPa	726.7 ± 2.1
24027 kPa	726.8 ± 2.1
24056 kPa	726.8 ± 2.1
24083 kPa	726.8 ± 2.1
24123 kPa	726.9 ± 2.1
24146 kPa	726.8 ± 2.1
24177 kPa	726.9 ± 2.1
24209 kPa	727 ± 2.1
24240 kPa	726.9 ± 2.1
24281 kPa	727 ± 2.1
24323 kPa	727 ± 2.1
24359 kPa	727 ± 2.1
24392 kPa	727 ± 2.1
24425 kPa	727 ± 2.1
24463 kPa	727 ± 2.1
24511 kPa	727.1 ± 2.1
24544 kPa	727.1 ± 2.1
24568 kPa	727.3 ± 2.1
24605 kPa	727.2 ± 2.1
24671 kPa	727.3 ± 2.1
25856 kPa	728 ± 2.1
25903 kPa	728.1 ± 2.1
25945 kPa	728.2 ± 2.1
25978 kPa	728.2 ± 2.1
26015 kPa	728.1 ± 2.1
26052 kPa	728.2 ± 2.1
26084 kPa	728.3 ± 2.1
26113 kPa	728.2 ± 2.1
26150 kPa	728.3 ± 2.1
26239 kPa	728.3 ± 2.1
26279 kPa	728.4 ± 2.1
26309 kPa	728.5 ± 2.1
26382 kPa	728.5 ± 2.1
26425 kPa	728.4 ± 2.1
26468 kPa	728.7 ± 2.1
26506 kPa	728.5 ± 2.1
26540 kPa	728.6 ± 2.1
26579 kPa	728.6 ± 2.1
26618 kPa	728.6 ± 2.1
26657 kPa	728.8 ± 2.1
26692 kPa	728.7 ± 2.1
27084 kPa	728.9 ± 2.1
27120 kPa	729 ± 2.1
27152 kPa	729.1 ± 2.1
27187 kPa	729.1 ± 2.1
27223 kPa	729.1 ± 2.1
27259 kPa	729.1 ± 2.1
27290 kPa	729.1 ± 2.1
27331 kPa	729.1 ± 2.1
27727 kPa	729.5 ± 2.1
27833 kPa	729.5 ± 2.1
28265 kPa	729.7 ± 2.1
28432 kPa	729.9 ± 2.1
29106 kPa	730.4 ± 2.1
29187 kPa	730.5 ± 2.1
29218 kPa	730.5 ± 2.1
29260 kPa	730.5 ± 2.1
29336 kPa	730.6 ± 2.1
29452 kPa	730.6 ± 2.1
29479 kPa	730.7 ± 2.1
29510 kPa	730.7 ± 2.1
29547 kPa	730.7 ± 2.1
29594 kPa	730.7 ± 2.1
31137 kPa	731.8 ± 2.1
31166 kPa	731.8 ± 2.1
31206 kPa	731.8 ± 2.1
32493 kPa	732.8 ± 2.1
32550 kPa	732.8 ± 2.1
32582 kPa	732.7 ± 2.1
32606 kPa	732.8 ± 2.1
32634 kPa	732.8 ± 2.1
32659 kPa	732.7 ± 2.1
